Data published in the NIST ThermoML archive (doi:10.1016/j.jct.2013.03.001).
Numbers after ± are expanded uncertainties.

What was measured:
[1] = Crystal; DTA
[2] = Molar enthalpy of transition or fusion; settings: Crystal; DSC
[3] = molar enthalpy of vaporization or sublimation; settings: 298.15 K; Crystal; Static calorimetry

| Normal melting temperature [1] [°C] | Molar enthalpy of transition or fusion [2] [kJ/mol] | molar enthalpy [3] [kJ/mol] | Structure (SMILES) |
| --- | --- | --- | --- |
| 128.46 ± 0.39 | 18.4 ± 0.47 | 91.7 ± 1.3 | O=c1cccc(Cl)[nH]1 [2(1H)-pyridinone, 6-chloro-] |
| 169.99 ± 0.41 | 26.8 ± 0.62 | 89.2 ± 1.8 | Oc1cccnc1Cl [2-chloro-3-hydroxypyridine] |
| 159.76 ± 0.41 | 21.6 ± 0.58 | 99.5 ± 2 | Oc1cncc(Cl)c1 [3-chloro-5-hydroxypyridine] |
